pIC50: −log10 of the molar value. Read-outs that look alike come from different tables or passages of the source.
Experiments:
[1] = test system: RS4;11 (BCL-2 dependent acute lymphoblastic leukemia cell line); assay: RS4;11 Cell Proliferation Assay; format: cell-based; settings: Homo sapiens, RS4-11, RS4;11 cells, read-out: Cellular proliferation assay (IC50, nM) RS4
In short: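 RS4;11 cells, 50,000 per well in RPMI-1640 with 10% FBS, treated 48 h at 37 °C with a 10-point dilution series topping at 1 μM. Viability read by CellTiter-Glo ATP luminescence; mean IC50 reported.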

[2] = test system: BCL-2 G101V knock-in cell line H96 (derive from RS4;11); assay: Bcl 2-G101V Knock-In RS4;11 Cell Proliferation Assay; format: cell-based; settings: Homo sapiens, RS4;11 Bcl-2 G101V knock-in clone H96, 48 hrs, CellTiter-GLO, read-out: Cellular proliferation assay (IC50, nM) RS4
In short: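 H96, a CRISPR-generated RS4;11 clone carrying BCL2-G101V knock-in (WES/RNA-seq validated), seeded 50,000 per well and exposed 48 h at 37 °C to 10-point dilutions topping at 1 or 10 μM. Viability by CellTiter-Glo luminescence; mean IC50.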

[3] = target: Recombinant human Bcl-2 protein (Homo sapiens (Human), UniProt P10415); assay: Bcl-2 TR-FRET Assay; format: binding
In short: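 0.05 nM recombinant Bcl-2 preincubated 0.5 h at room temperature with 10-point compound dilutions (top final 1, 0.1, 0.02 or 0.01 uM) in pH 7.5 phosphate buffer. FITC-Bak peptide (0.5 nM) and anti-6His Tb cryptate then added for 1 h. TR-FRET read; IC50 from four-parameter logistic fit.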

[4] = target: recombinant human Bcl-2-G101V protein (Homo sapiens (Human), UniProt P10415, G101V); assay: Bcl-2-G101V TR-FRET Assay; format: binding; settings: Bcl-2 G101V mutant, TR-FRET; read-out: Biochemical assay (IC50, nM) Bcl-2 G101V
In short: (§1)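 IC50 values derive from four-parameter logistic fitting of percent inhibition data. That inhibition of ligand binding to Bcl-2-G101V is computed from the 490 nm/520 nm TR-FRET ratio under 337 nm excitation, over a rising compound concentration series.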

[5] = test system: recombinant human Bcl-2-G101V protein; assay: Bcl-2-G101V TR-FRET Assay; format: binding; settings: ratio of biochemical IC50 Bcl-2 G101V / Bcl-2 WT
In short: as §1

[6] = target: recombinant human Bcl-2 D103Y protein (Homo sapiens (Human), UniProt P10415, D103Y); assay: Bcl-2-D103Y Biochemical Assay (TR-FRET); format: binding; settings: for pIC50: TR-FRET, FITC labeled Bak peptide; for Ratio of Bcl-2 D103Y/Bcl-2 WT: ratio of IC50
In short: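 Recombinant human Bcl-2 D103Y binding to its ligand measured by TR-FRET (ex 337 nm, em 490/520 nm) with increasing compound concentrations. Percent inhibition from the 490/520 nm ratio; IC50 from four-parameter logistic fit.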

[7] = Bcl-2 wild type, TR-FRET, read-out: Biochemical assay (IC50, nM) Bcl-2 WT
[8] = wild type Bcl-2, unit inferred, read-out: Bcl-2 WT

CC(C)c1ccccc1C1CC(Oc2ccccc2)CCN1C1CC2(CCN(c3ccc(C(=O)NS(=O)(=O)c4ccc(NC[C@H]5CC[C@](C)(O)CC5)c([N+](=O)[O-])c4)c(Oc4cnc5[nH]ccc5c4)c3)CC2)C1 (stereo partly drawn) [Example 68, 2-((1H-pyrrolo[2,3-b]pyridin-5-yl)oxy)-N-((4-((((1r,4r)-4-hydroxy-4-methylcyclohexyl)methyl)amino)-3-nitrophenyl)sulfonyl)-4-(2-(2-(2-isopropylphenyl)-4-phenoxypiperidin-1-yl)-7-azaspiro [3.5]nonan-7-yl)benzamide]
IC50 [1]: 0.47 nM
IC50 [2]: 4.7 nM
IC50 [3, 7]: 0.2 nM
IC50 [3, 8]: 0.2 nM
IC50 [4]: 0.81 nM
Ratio of Bcl-2 G101V/WT [5]: 4
pIC50 [6]: 9.06
ratio of Bcl-2 D103Y/Bcl-2 wt, compared with F91b in WO2019210828 ([6]; comparison in words): significantly lower
Ratio of Bcl-2 D103Y/Bcl-2 WT [6]: 4.3

CC(C)c1ccccc1C1CN(Cc2cnn(C3CC3)c2)CCN1C1CC2(CCN(c3ccc(C(=O)NS(=O)(=O)c4ccc(NC[C@H]5CC[C@](C)(O)CC5)c([N+](=O)[O-])c4)c(Oc4cnc5[nH]ccc5c4)c3)CC2)C1 (stereo partly drawn) [Example 70, 2-((1H-pyrrolo[2,3-b]pyridin-5-yl)oxy)-4-(2-(4-((1-cyclopropyl-1H-pyrazol-4-yl)methyl)-2-(2-isopropylphenyl)piperazin-1-yl)-7-azaspiro[3.5]nonan-7-yl)-N-((4-((((1r,4r)-4-hydroxy-4-methylcyclohexyl)methyl)amino)-3-nitrophenyl)sulfonyl)benzamide]
IC50 [1]: 0.38 nM
IC50 [2]: 1.5 nM
IC50 [3, 7]: 0.014 nM
IC50 [3, 8]: 0.014 nM
IC50 [4]: 0.13 nM
Ratio of Bcl-2 G101V/WT [5]: 9
pIC50 [6]: 10.00
Ratio of Bcl-2 D103Y/Bcl-2 WT [6]: 7.1

COc1nn(C)cc1CN1CCN(C2CC3(CCN(c4ccc(C(=O)NS(=O)(=O)c5ccc(NC[C@H]6CC[C@](C)(O)CC6)c([N+](=O)[O-])c5)c(Oc5cnc6[nH]ccc6c5)c4)CC3)C2)C(c2ccccc2C(C)C)C1 (stereo partly drawn) [Example 71, 2-((1H-pyrrolo[2,3-b]pyridin-5-yl)oxy)-N-((4-((((1r,4r)-4-hydroxy-4-methylcyclohexyl)methyl)amino)-3-nitrophenyl)sulfonyl)-4-(2-(2-(2-isopropylphenyl)-4-((3-methoxy-1-methyl-1H-pyrazol-4-yl)methyl)piperazin-1-yl)-7-azaspiro[3.5]nonan-7-yl)benzamide]
IC50 [1]: 0.43 nM
IC50 [2]: 2 nM
IC50 [3, 7]: 0.02 nM
IC50 [3, 8]: 0.02 nM
IC50 [4]: 0.17 nM
Ratio of Bcl-2 G101V/WT [5]: 8.3
pIC50 [6]: 9.82
Ratio of Bcl-2 D103Y/Bcl-2 WT [6]: 7.6

COc1ccc(CN2CCN(C3CC4(CCN(c5ccc(C(=O)NS(=O)(=O)c6ccc(NC[C@H]7CC[C@](C)(O)CC7)c([N+](=O)[O-])c6)c(Oc6cnc7[nH]ccc7c6)c5)CC4)C3)C(c3ccccc3C3CC3)C2)cc1 (stereo partly drawn) [Example 73, 2-((1H-pyrrolo[2,3-b]pyridin-5-yl)oxy)-4-(2-(2-(2-cyclopropylphenyl)-4-(4-methoxybenzyl)piperazin-1-yl)-7-azaspiro[3.5]nonan-7-yl)-N-((4-((((1r,4r)-4-hydroxy-4-methylcyclohexyl)methyl)amino)-3-nitrophenyl)sulfonyl)benzamide]
IC50 [1]: 0.37 nM
IC50 [2]: 2.4 nM
IC50 [3, 7]: 0.06 nM
IC50 [3, 8]: 0.06 nM
IC50 [4]: 0.47 nM
Ratio of Bcl-2 G101V/WT [5]: 7.9
pIC50 [6]: 9.51
Ratio of Bcl-2 D103Y/Bcl-2 WT [6]: 5.1

Source: patent US20240376097A1, “BCL-2 Inhibitor” (BeiGene Ltd., priority 2020, published 2024)
